The target of experiment [1] is T1, BACE1 (Homo sapiens, UniProt P56817). Nature of the experiment: Cellular Abeta-lowering assay. The following applies: HEK293 cells stably transfected with human APP wt (APP695), Aβ40 ELISA of supernatant after 18-20 hrs. The arrangement: endogenous in cells; host or cells: HEK293 stably transfected with human APP695 wt. In kind it is cell-based. A general note: ELISA stands for enzyme-linked immunosorbent assay.

Experiment [2] has as its target T2, BACE2 (Rattus norvegicus, UniProt Q6IE75).
T2 construct: endogenous cellular BACE2 in the Ins1e rat cell line; endogenous in cells; host or cells: INS-TMEM27 (INS1e-derived rat cell line with doxycycline-inducible full-length hTMEM27)
T2 sequence (Q6IE75 63-514): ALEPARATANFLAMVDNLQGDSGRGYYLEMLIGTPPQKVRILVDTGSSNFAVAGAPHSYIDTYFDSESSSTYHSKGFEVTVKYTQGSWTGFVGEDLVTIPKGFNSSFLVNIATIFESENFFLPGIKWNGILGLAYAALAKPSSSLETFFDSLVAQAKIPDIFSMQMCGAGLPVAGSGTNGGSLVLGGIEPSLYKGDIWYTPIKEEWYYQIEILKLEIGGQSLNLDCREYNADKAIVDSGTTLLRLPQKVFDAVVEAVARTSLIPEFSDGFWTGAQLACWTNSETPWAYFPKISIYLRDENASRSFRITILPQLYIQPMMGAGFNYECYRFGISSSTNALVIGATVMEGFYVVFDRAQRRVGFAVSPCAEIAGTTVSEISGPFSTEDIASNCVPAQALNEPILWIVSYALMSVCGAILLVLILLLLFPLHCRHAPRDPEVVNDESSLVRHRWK
Nature of the experiment: Assay for BACE inhibition by measuring cellular TMEM27 cleavage.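 Also: inhibitor added 2 h before doxycycline-induced hTMEM27 expression, supernatant collected after further 46 h, endogenous BACE2 activity read as reduced TMEM27 shedding.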 In kind it is cell-based. The following applies: INS-TMEM27 (INS1e-derived) cells, ELISA of shed human TMEM27 in supernatant.

The target of experiment [3] is T3, BACE2 (Homo sapiens, UniProt Q9Y5Z0).
T3 construct: BACE2 enzyme ectodomain (derived from plasmid “pET17b-T7-hu proBACE2”); T7 (N); made in house
T3 sequence (Q9Y5Z0 63-473 limits assumed): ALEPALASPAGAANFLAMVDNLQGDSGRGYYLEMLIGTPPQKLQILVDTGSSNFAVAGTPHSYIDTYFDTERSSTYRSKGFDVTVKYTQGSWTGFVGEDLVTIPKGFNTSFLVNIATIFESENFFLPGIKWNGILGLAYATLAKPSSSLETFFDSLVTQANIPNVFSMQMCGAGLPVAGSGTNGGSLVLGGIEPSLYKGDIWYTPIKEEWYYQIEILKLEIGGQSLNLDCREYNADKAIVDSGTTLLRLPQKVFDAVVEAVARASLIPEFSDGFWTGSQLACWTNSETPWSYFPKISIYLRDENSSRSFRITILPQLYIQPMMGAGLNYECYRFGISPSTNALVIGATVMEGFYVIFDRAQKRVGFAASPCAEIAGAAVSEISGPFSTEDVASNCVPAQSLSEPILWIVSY
The experiment can be described thus: Assay A: binding studies using SPR based methods, immobilised BACE2. The following applies: CM5 chip, immobilised BACE2 enzyme ectodomain, acetate buffer pH 4.6, 4% DMSO. In general terms: In SPR one partner is held on a chip, and binding of the other changes the refractive index at the surface.

Experiment [4] addresses T1, BACE1. The experiment can be described thus: Assay A: binding studies using SPR based methods, immobilised BACE1.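 Also: KD from a 1:1 kinetic fit (koff/kon) of real-time association and dissociation curves, or for fast binders from end-of-association equilibrium responses plotted against log concentration.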 The arrangement: 6his-tagged full length BACE 1 expressed in SF9 cells; 6His; made in house; host or cells: SF9 insect cells. The following applies: CM5 chip, immobilised 6his-tagged full length BACE 1, acetate buffer pH 4.6, 4% DMSO.

Our source for the IC50 and Kd values is patent US20130196984A1, “3-AMINO-5-PHENYL-56-DIHYDRO-2H-[1,4]OXAZINES” (Siena Biotech S.p.A., priority 2009, published 2013).

Structures can show the parent of a compound that is named as a salt.

T1 sequence (P56817 46-501): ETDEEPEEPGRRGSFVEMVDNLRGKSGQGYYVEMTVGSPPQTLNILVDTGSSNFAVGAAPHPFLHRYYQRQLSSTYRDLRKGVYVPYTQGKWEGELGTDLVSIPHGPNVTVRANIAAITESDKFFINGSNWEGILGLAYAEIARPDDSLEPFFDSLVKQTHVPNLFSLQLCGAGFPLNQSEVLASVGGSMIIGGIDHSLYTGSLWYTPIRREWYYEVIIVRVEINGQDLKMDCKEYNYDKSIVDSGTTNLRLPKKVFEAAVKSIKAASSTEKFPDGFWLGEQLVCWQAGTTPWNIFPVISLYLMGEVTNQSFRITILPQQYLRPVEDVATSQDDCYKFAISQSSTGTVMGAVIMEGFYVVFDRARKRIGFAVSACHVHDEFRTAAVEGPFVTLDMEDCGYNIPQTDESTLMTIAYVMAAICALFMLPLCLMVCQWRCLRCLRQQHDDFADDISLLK

The term IC50 denotes the concentration that gives 50% inhibition. A lower IC50 goes with higher potency. As usually defined, the Kd is the equilibrium constant for the complex coming apart. High values mean a looser complex, low ones a tighter complex. As to `Cc1ccsc1C(=O)Nc1ccc(F)c([C@]2(C)COCC(N)=N2)c1` [Example 44, 3-methyl-thiophene-2-carboxylic acid [3-((R)-5-amino-3-methyl-3,6-dihydro-2H-[1,4]oxazin-3-yl)-4-fluoro-phenyl]-amide], the results for the IC50 against BACE1 [1] and against BACE2 [2] were 470 nM and 310 nM, respectively. Also, the equilibrium dissociation constant (Kd) on BACE2 [3] was 43 nM; at BACE1 [4], 1820 nM.
Turning to `C[C@@]1(c2cc(NC(=O)c3ncoc3-c3ccccc3)ccc2F)COCC(N)=N1` [Example 45, 5-phenyl-oxazole-4-carboxylic acid [3-((R)-5-amino-3-methyl-3,6-dihydro-2H-[1,4]oxazin-3-yl)-4-fluoro-phenyl]-amide], the results for the IC50 against BACE1 [1] and against BACE2 [2] were 760 nM and 620 nM, respectively. For the same molecule, the dissociation constant Kd on BACE2 [3] was 3020 nM; at BACE1 [4], 3940 nM.
With `C[C@@]1(c2cc(NC(=O)c3sccc3Cl)ccc2F)COCC(N)=N1` [Example 46, 3-chloro-thiophene-2-carboxylic acid [3-((R)-5-amino-3-methyl-3,6-dihydro-2H-[1,4]oxazin-3-yl)-4-fluoro-phenyl]-amide], the IC50 is 1350 nM on BACE1 [1] and 720 nM against BACE2 [2]. Besides, the equilibrium dissociation constant (Kd) on BACE2 [3] worked out at 629 nM; at BACE1 [4] it was 10800 nM.
Consider `C[C@@]1(c2cc(NC(=O)c3ncccc3OCC(F)(F)F)ccc2F)COCC(N)=N1` [Example 48, 3-(2,2,2-trifluoro-ethoxy)-pyridine-2-carboxylic acid [3-((R)-5-amino-3-methyl-3,6-dihydro-2H-[1,4]oxazin-3-yl)-4-fluoro-phenyl]-amide], for which the IC50 was found to be 350 nM against BACE1 [1] and 52 nM against BACE2 [2]. For the same molecule, the equilibrium dissociation constant (Kd) at BACE2 [3] worked out at 115 nM; at BACE1 [4] it was 1200 nM.
Consider `CC1(C)OCC(N)=N[C@]1(C)c1cc(NC(=O)c2ccc(Cl)cn2)ccc1F` [Example 49, 5-chloro-pyridine-2-carboxylic acid [3-((R)-5-amino-2,2,3-trimethyl-3,6-dihydro-2H-[1,4]oxazin-3-yl)-4-fluoro-phenyl]-amide], for which the IC50 turned out to be 4 nM against BACE1 [1] and 66 nM against BACE2 [2]. The Kd on BACE2 [3] is 22 nM; at BACE1 [4] it was 15 nM.
In the same order, the values of `CC1(C)OCC(N)=N[C@]1(C)c1cc(NC(=O)c2ccc(OCC(F)(F)F)cn2)ccc1F` [Example 50, 5-(2,2,2-trifluoro-ethoxy)-pyridine-2-carboxylic acid [3-((R)-5-amino-2,2,3-trimethyl-3,6-dihydro-2H-[1,4]oxazin-3-yl)-4-fluoro-phenyl]-amide] are 39 nM, 1400 nM, 2100 nM and 900 nM.
On to `CC1(C)OC[C@@](C)(c2cccc(NC(=O)c3ccc(Cl)cn3)c2)N=C1N` [Example 51, 5-chloro-pyridine-2-carboxylic acid [3-((R)-5-amino-3,6,6-trimethyl-3,6-dihydro-2H-[1,4]oxazin-3-yl)-phenyl]-amide], for which the IC50 against BACE1 [1] was 14 nM; against BACE2 [2], 5 nM. Moreover, the dissociation constant Kd stood at 2 nM on BACE2 [3] and 22 nM on BACE1 [4].
For `C[C@@]1(c2cc(NC(=O)c3ccc(C#N)cn3)ccc2F)COCC(N)=N1` [Example 72, 5-cyano-pyridine-2-carboxylic acid [3-((R)-5-amino-3-methyl-3,6-dihydro-2H-[1,4]oxazin-3-yl)-4-fluoro-phenyl]-amide hydrochloride] the same measures were 3 nM, 39 nM, 25 nM and 16 nM.
For `C[C@@]1(c2cc(NC(=O)c3ccc(OC(F)F)cn3)ccc2F)COCC(N)=N1` [Example 73, 5-difluoromethoxy-pyridine-2-carboxylic acid [3-((R)-5-amino-3-methyl-3,6-dihydro-2H-[1,4]oxazin-3-yl)-4-fluoro-phenyl]-amide hydrochloride] the same measures were 4 nM, 105 nM, 51 nM and 9 nM.
In the same order, the values of `C[C@@]1(c2cc(NC(=O)c3ncc(Cl)cc3F)ccc2F)COCC(N)=N1` [Example 74, 5-Chloro-3-fluoro-pyridine-2-carboxylic acid [3-((R)-5-amino-3-methyl-3,6-dihydro-2H-[1,4]oxazin-3-yl)-4-fluoro-phenyl]-amide hydrochloride] are 4 nM, 1350 nM, 2 nM and 10 nM.
`C[C@@]1(c2cc(NC(=O)c3ncco3)ccc2F)COCC(N)=N1` [Example 80, oxazole-2-carboxylic acid [3-((R)-5-amino-3-methyl-3,6-dihydro-2H-[1,4]oxazin-3-yl)-4-fluoro-phenyl]-amide]: the concentration for half-maximal inhibition (IC50) is 700 nM against BACE1 [1] and 84 nM on BACE2 [2]. Moreover, the results for the equilibrium dissociation constant (Kd) on BACE2 [3] and at BACE1 [4] were 45 nM and 2270 nM, respectively.
For `C[C@@]1(c2cc(NC(=O)c3cnc(C(F)(F)F)cn3)ccc2F)COCC(N)=N1` [Example 81, 5-trifluoromethyl-pyrazine-2-carboxylic acid [3-((R)-5-amino-3-methyl-3,6-dihydro-2H-[1,4]oxazin-3-yl)-4-fluoro-phenyl]-amide formate] the same measures were 47 nM, 210 nM, 256 nM and 102 nM.
For `C[C@@]1(c2cc(NC(=O)c3cnc(C(F)(F)F)cn3)ccc2F)COCC(N)=N1` [Example 82, 5-trifluoromethyl-pyrazine-2-carboxylic acid [3-((R)-5-amino-3-methyl-3,6-dihydro-2H-[1,4]oxazin-3-yl)-4-fluoro-phenyl]-amide formate] the same measures were 46 nM, 140 nM, 113 nM and 129 nM.
Take `C[C@@]1(c2cc(NC(=O)C(F)(F)C(F)F)ccc2F)COCC(N)=N1` [Example 83, N-[3-((R)-5-amino-3-methyl-3,6-dihydro-2H-[1,4]oxazin-3-yl)-4-fluoro-phenyl]-2,2,3,3-tetrafluoro-propionamide formate]: the IC50 against BACE1 [1] is 300 nM; at BACE2 [2], 130 nM. In addition, the dissociation constant (Kd) on BACE2 [3] was found to be 276 nM; on BACE1 [4] it was 916 nM.
For `COCC(=O)Nc1ccc(F)c([C@]2(C)COCC(N)=N2)c1` [Example 84, N-[3-((R)-5-amino-3-methyl-3,6-dihydro-2H-[1,4]oxazin-3-yl)-4-fluoro-phenyl]-2-methoxy-acetamide formate] the same measures were 140 nM, 83 nM, 77 nM and 261 nM.
For `CC(C)C(=O)Nc1ccc(F)c([C@]2(C)COCC(N)=N2)c1` [Example 88, N-[3-((R)-5-amino-3-methyl-3,6-dihydro-2H-[1,4]oxazin-3-yl)-4-fluoro-phenyl]-isobutyramide formate], the IC50 against BACE1 [1] was 2760 nM; on BACE2 [2] it was 560 nM. Also, the Kd at BACE2 [3] was 3450 nM; at BACE1 [4], more than 10000 nM.
As for `CC(F)(F)C(=O)Nc1ccc(F)c([C@]2(C)COCC(N)=N2)c1` [Example 90, N-[3-((R)-5-amino-3-methyl-3,6-dihydro-2H-[1,4]oxazin-3-yl)-4-fluoro-phenyl]-2,2-difluoro-propionamide formate], the IC50 against BACE1 [1] came to 220 nM; on BACE2 [2], 1220 nM. Besides, the figures for the dissociation constant (Kd) at BACE2 [3] and on BACE1 [4] were 150 nM and 148 nM, respectively.
As for `C[C@@]1(c2cc(NC(=O)C(F)F)ccc2F)COCC(N)=N1` [Example 91, N-[3-((R)-5-amino-3-methyl-3,6-dihydro-2H-[1,4]oxazin-3-yl)-4-fluoro-phenyl]-2,2-difluoro-acetamide formate], the figures for the IC50 against BACE1 [1] and at BACE2 [2] were 1460 nM and 95 nM, respectively. Besides, the Kd on BACE2 [3] stood at 1140 nM; on BACE1 [4] it was 994 nM.
